Experimental data reported in patent US20250188040A1, “PHARMACEUTICAL COMPOSITIONS COMPRISING WRN HELICASE INHIBITORS” (Vividion Therapeutics, Inc., priority 2022, published 2025).
Where two headings read alike, the source gives them in different places.

What was measured:
WRN C727 = biological target: T1, WRN C727 (Homo sapiens, UniProt Q14191); assay: Target engagement, in vitro (lysate), OCI-AML2; type: binding; conditions: read-out: OCI-AML2 WRN C727 TE50 in vitro (lysate)
T1 construct: endogenous in cells; host or cells: OCI-AML2
T1 sequence (Q14191 whole entry): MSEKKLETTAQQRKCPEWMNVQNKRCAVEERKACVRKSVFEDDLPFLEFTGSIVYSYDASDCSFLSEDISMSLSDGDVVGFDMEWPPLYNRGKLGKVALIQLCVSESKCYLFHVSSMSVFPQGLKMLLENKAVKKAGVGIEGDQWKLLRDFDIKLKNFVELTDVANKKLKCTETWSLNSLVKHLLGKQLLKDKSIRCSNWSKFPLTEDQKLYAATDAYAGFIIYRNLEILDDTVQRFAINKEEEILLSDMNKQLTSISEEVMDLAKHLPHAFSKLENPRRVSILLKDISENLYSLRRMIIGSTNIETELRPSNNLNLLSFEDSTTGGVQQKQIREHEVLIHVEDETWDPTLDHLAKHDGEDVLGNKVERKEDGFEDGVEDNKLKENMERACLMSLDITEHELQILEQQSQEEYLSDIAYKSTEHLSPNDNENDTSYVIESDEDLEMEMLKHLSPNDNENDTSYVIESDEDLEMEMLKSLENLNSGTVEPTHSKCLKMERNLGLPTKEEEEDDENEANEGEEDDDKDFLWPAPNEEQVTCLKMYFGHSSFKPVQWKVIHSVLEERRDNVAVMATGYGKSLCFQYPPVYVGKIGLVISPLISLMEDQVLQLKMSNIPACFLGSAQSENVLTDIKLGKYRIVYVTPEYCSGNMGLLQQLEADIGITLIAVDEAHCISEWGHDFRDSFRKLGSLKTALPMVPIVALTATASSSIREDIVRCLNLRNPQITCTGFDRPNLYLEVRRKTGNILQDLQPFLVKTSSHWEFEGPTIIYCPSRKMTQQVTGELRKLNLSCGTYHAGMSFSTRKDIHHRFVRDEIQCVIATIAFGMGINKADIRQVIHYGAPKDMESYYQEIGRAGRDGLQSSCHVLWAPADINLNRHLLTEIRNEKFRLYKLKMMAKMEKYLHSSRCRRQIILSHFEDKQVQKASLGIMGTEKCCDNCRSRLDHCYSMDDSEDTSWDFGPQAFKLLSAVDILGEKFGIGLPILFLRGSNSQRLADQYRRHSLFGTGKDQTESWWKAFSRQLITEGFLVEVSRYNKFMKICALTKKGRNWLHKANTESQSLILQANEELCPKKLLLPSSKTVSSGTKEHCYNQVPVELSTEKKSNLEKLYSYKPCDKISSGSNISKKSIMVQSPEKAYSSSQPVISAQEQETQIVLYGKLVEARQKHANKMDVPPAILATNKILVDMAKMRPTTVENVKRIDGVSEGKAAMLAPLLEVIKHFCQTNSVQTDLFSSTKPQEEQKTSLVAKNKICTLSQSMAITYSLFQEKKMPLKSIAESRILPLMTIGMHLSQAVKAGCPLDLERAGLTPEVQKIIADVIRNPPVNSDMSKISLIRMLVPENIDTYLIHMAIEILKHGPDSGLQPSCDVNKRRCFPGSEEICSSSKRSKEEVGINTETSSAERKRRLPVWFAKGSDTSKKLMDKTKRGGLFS
How it was run: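 Percent engagement of WRN C727 is expressed against DMSO-treated samples, measured by PRM mass spectrometry of streptavidin-enriched, probe-tagged tryptic peptides. Compound dose responses preceded probe labelling of solvent-exposed cysteines, in either living OCI-AML2 cells or their lysates.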

HCT 116 cells = assay: Cell growth assay (CellTiter-Glo 2.0), HCT 116 MSI-H cell line; conditions: Homo sapiens, HCT-116, 120 h, read-out: Cell Growth Inhibition GI50 HCT-116
[1] = biological target: hWRN(519-1227)_C-H3CV-GFP-10His (Homo sapiens, UniProt Q14191); assay: Helicase Assay for WRN Inhibition (ATP-dependent, fluorescence based)
hWRN(519-1227)_C-H3CV-GFP-10His, sequence (Q14191 519-1227): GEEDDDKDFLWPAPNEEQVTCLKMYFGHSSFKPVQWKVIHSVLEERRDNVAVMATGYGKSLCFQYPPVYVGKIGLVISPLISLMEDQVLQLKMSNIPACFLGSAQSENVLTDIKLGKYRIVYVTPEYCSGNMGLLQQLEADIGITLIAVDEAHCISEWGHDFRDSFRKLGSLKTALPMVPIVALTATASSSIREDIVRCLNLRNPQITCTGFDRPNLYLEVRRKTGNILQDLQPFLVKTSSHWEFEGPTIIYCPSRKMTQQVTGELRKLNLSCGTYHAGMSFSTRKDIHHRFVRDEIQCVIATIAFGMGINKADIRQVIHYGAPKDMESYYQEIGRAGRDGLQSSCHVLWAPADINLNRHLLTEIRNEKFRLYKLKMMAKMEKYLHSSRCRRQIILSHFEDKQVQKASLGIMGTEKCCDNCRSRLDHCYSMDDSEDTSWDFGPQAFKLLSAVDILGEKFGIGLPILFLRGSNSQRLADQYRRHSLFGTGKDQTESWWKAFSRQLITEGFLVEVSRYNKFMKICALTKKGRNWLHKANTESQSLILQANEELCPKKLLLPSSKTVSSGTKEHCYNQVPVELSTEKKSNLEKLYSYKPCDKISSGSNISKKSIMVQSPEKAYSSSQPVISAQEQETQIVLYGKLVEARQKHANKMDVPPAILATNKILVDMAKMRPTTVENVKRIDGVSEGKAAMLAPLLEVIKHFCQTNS

SW480 cells = assay: Cell growth assay (CellTiter-Glo 2.0), SW480 MSS cell line; conditions: Homo sapiens, SW480, 120 h, read-out: Cell Growth Inhibition GI50 SW480
[2] = WRN Helicase IC50, 30 min preincubation with ATP, 30 min reaction

Structure (SMILES) | IC50 (WRN C727) [nM] | GI50 (HCT 116 cells) [nM] | IC50 [1, 2] [nM] | GI50 (SW480 cells) [nM] | IC50 [1] [nM]
CS(=O)(=O)/C=C/[C@@H](NC(=O)c1cnc(C2CCCC2)nc1Oc1ccccc1)C1CCC1 [Example 9, (S,E)-N-(1-cyclobutyl-3-(methylsulfonyl)allyl)-2-cyclopentyl-4-phenoxypyrimidine-5-carboxamide] | 310 | 43 | 160 | 15000 | 
COC[C@@H](/C=C/S(C)(=O)=O)NC(=O)c1cnc(C2CCCC2)nc1Oc1ccccc1 [Example 10, (R,E)-2-cyclopentyl-N-(1-methoxy-4-(methylsulfonyl)but-3-en-2-yl)-4-phenoxypyrimidine-5-carboxamide] | 240 | 72.4 | 130 | 27400 | 
CC(C)c1ncc(C(=O)N[C@H](/C=C/S(C)(=O)=O)C2CC2)c(Oc2ccccc2)n1 [Example 16, (S,E)-N-(1-cyclopropyl-3-(methylsulfonyl)allyl)-2-isopropyl-4-phenoxypyrimidine-5-carboxamide] | 650 | 85 | 180 | 24300 | 
C[C@@H](/C=C/S(=O)(=O)C1CC1)NC(=O)c1cnc(C2CC2)nc1Oc1ccccc1 [Example 25, (S,E)-2-cyclopropyl-N-(4-(cyclopropylsulfonyl)but-3-en-2-yl)-4-phenoxypyrimidine-5-carboxamide] | > 100000 | 5000 | 12000 | > 10000 | 
CS(=O)(=O)/C=C1/CCN(C(=O)c2cnc(C3CC3)nc2Oc2ccccc2)C1 [Example 26, (2-cyclopropyl-4-phenoxy-pyrimidin-5-yl)-[(3Z)-3-(methylsulfonylmethylene)pyrrolidin-1-yl]methanone] | > 100000 | 18000 |  | 54000 | 103000
CS(=O)(=O)/C=C/[C@H](CC1CC1)NC(=O)c1cnc(C2CC2)nc1Oc1ccccc1 [Example 28, (S,E)-2-cyclopropyl-N-(1-cyclopropyl-4-(methylsulfonyl)but-3-en-2-yl)-4-phenoxypyrimidine-5-carboxamide] | 6740 | 606 | 1500 | 37200 | 
CS(=O)(=O)/C=C/[C@@H](NC(=O)c1cnc(C2CC2)nc1Oc1ccccc1)C1CCC1 [Example 29, (S,E)-N-(1-cyclobutyl-3-(methylsulfonyl)allyl)-2-cyclopropyl-4-phenoxypyrimidine-5-carboxamide] | 1680 | 165 | 645 | 37400 | 
CS(=O)(=O)/C=C/[C@@H](NC(=O)c1cnc(C2CC2)nc1Oc1ccccc1)C1CC(F)(F)C1 [Example 30, (S,E)-2-cyclopropyl-N-(1-(3,3-difluorocyclobutyl)-3-(methylsulfonyl)allyl)-4-phenoxypyrimidine-5-carboxamide] | 1430 | 120 | 450 | 16000 | 
CSC[C@@H](/C=C/S(C)(=O)=O)NC(=O)c1cnc(C2CC2)nc1Oc1ccccc1 [Example 31, (R,E)-2-cyclopropyl-N-(4-(methylsulfonyl)-1-(methylthio)but-3-en-2-yl)-4-phenoxypyrimidine-5-carboxamide] | 3240 | 630 | 880 | 28000 | 
CS(=O)(=O)/C=C/[C@@H](NC(=O)c1cnc(C2CC2)nc1Oc1ccccc1)C1CCOCC1 [Example 33, (S,E)-2-cyclopropyl-N-(3-(methylsulfonyl)-1-(tetrahydro-2H-pyran-4-yl)allyl)-4-phenoxypyrimidine-5-carboxamide] | 4640 | 1300 | 2500 | > 100000 | 
CS(=O)(=O)/C=C/[C@@H](NC(=O)c1cnc(CC2CC2)nc1Oc1ccccc1)C1CC1 [Example 36, (S,E)-N-(1-cyclopropyl-3-(methylsulfonyl)allyl)-2-(cyclopropylmethyl)-4-phenoxypyrimidine-5-carboxamide] | 450 | 59 | 185 | 17700 | 
CS(=O)(=O)/C=C/[C@@H](NC(=O)c1cnc(C(F)C2CC2)nc1Oc1ccccc1)C1CC1 (stereo partly drawn) [Example 37, N—((S,E)-1-cyclopropyl-3-(methylsulfonyl)allyl)-2-(cyclopropylfluoromethyl)-4-phenoxypyrimidine-5-carboxamide] | 450 | 35.9 | 240 | 28600 | 
C[C@@H](/C=C/S(C)(=O)=O)NC(=O)c1cnc(C2(C)CC2)nc1Oc1ccccc1 [Example 38, (S,E)-2-(1-methylcyclopropyl)-N-(4-(methylsulfonyl)but-3-en-2-yl)-4-phenoxypyrimidine-5-carboxamide] | 800 | 157 | 434 | 11700 | 
CC1(c2ncc(C(=O)N3CC(=CS(C)(=O)=O)C3)c(Oc3ccccc3)n2)CC1 [Example 39, (2-(1-methylcyclopropyl)-4-phenoxypyrimidin-5-yl)(3-((methylsulfonyl)methylene)azetidin-1-yl)methanone] | 640 | 110 |  | 14000 | 240
C[C@@H](/C=C/S(C)(=O)=O)NC(=O)c1cnc(CC2(C)CC2)nc1Oc1ccccc1 [Example 40, (S,E)-2-((1-methylcyclopropyl)methyl)-N-(4-(methylsulfonyl)but-3-en-2-yl)-4-phenoxypyrimidine-5-carboxamide] | 3480 | 1200 | 2700 | 49000 | 
CC1(Cc2ncc(C(=O)N3CC(=CS(C)(=O)=O)C3)c(Oc3ccccc3)n2)CC1 [Example 41, (2-((1-methylcyclopropyl)methyl)-4-phenoxypyrimidin-5-yl)(3-((methylsulfonyl)methylene)azetidin-1-yl)methanone] | 2060 | 720 |  | 33000 | 1400
C[C@@H](/C=C/S(C)(=O)=O)NC(=O)c1cnc(C2(c3ccccc3)CC2)nc1Oc1ccccc1 [Example 42, (S,E)-N-(4-(methylsulfonyl)but-3-en-2-yl)-4-phenoxy-2-(1-phenylcyclopropyl)pyrimidine-5-carboxamide] | 4440 | 355 | 1700 | 5200 | 
CS(=O)(=O)/C=C/CNC(=O)c1cnc(C2CCC2)nc1Oc1ccccc1 [Example 43, (E)-2-cyclobutyl-N-(3-(methylsulfonyl)allyl)-4-phenoxypyrimidine-5-carboxamide] | 18700 | 670 | 1500 | 7800 | 
CS(=O)(=O)/C=C/[C@@H](NC(=O)c1cnc(C2CCC2)nc1Oc1ccccc1)C1CC1 [Example 45, (S,E)-2-cyclobutyl-N-(1-cyclopropyl-3-(methylsulfonyl)allyl)-4-phenoxypyrimidine-5-carboxamide] | 110 | 36.7 | 86 | 13000 | 
C[C@@H](/C=C/S(C)(=O)=O)NC(=O)c1cnc(CC2CCC2)nc1Oc1ccccc1 [Example 53, (S,E)-2-(cyclobutylmethyl)-N-(4-(methylsulfonyl)but-3-en-2-yl)-4-phenoxypyrimidine-5-carboxamide] | 14500 | 970 | 3600 | > 10000 | 
C[C@@H](/C=C/S(C)(=O)=O)NC(=O)c1cnc(CC2CCCC2)nc1Oc1ccccc1 [Example 54, (S,E)-2-(cyclopentylmethyl)-N-(4-(methylsulfonyl)but-3-en-2-yl)-4-phenoxypyrimidine-5-carboxamide] | 50000 | 770 | 2600 | > 10000 | 
C[C@@H](/C=C/S(C)(=O)=O)NC(=O)c1cnc(C2CC3(CC3)C2)nc1Oc1ccccc1 [Example 55, (S,E)-N-(4-(methylsulfonyl)but-3-en-2-yl)-4-phenoxy-2-(spiro[2.3]hexan-5-yl)pyrimidine-5-carboxamide] | 8680 | 150 | 910 | 6200 | 
CC(C)(C)c1ncc(C(=O)N2CC(=CS(=O)(=O)C3CCOCC3)C2)c(Oc2ccccc2)n1 [Example 62, (2-(tert-butyl)-4-phenoxypyrimidin-5-yl)(3-(((tetrahydro-2H-pyran-4-yl)sulfonyl)methylene)azetidin-1-yl)methanone] | 4090 | 265 |  | 13200 | 650
COC[C@@H](/C=C/S(C)(=O)=O)NC(=O)c1cnc(C(C)(C)C)nc1Oc1ccccc1 [Example 63, (R,E)-2-(tert-butyl)-N-(1-methoxy-4-(methylsulfonyl)but-3-en-2-yl)-4-phenoxypyrimidine-5-carboxamide] | 500 | 30.6 | 87.9 | 31000 | 
COC[C@H](/C=C/S(C)(=O)=O)NC(=O)c1cnc(C(C)(C)C)nc1Oc1ccccc1 [Example 64, (S,E)-2-(tert-butyl)-N-(1-methoxy-4-(methylsulfonyl)but-3-en-2-yl)-4-phenoxypyrimidine-5-carboxamide] | > 100000 | 2300 | 8600 | 36000 | 
CC(C)(C)c1ncc(C(=O)N[C@H](/C=C/S(C)(=O)=O)CC2CC2)c(Oc2ccccc2)n1 [Example 65, (S,E)-2-(tert-butyl)-N-(1-cyclopropyl-4-(methylsulfonyl)but-3-en-2-yl)-4-phenoxypyrimidine-5-carboxamide] | 1170 | 87 | 300 | 25400 | 
